Data reported in patent US8674096B2, “Substituted imidazo[1,5-a]quinoxalin-4-ones as phosphodiesterase 9 inhibitors” (priority 2009, dated 2014).

How the values were obtained:
PDE9 = target: T1, PDE9 (Homo sapiens, UniProt O76083); experiment: PDE9-inhibiting activity (SPA, 3H-cGMP degradation); type: biochemical
T1 construct: made in house
Method: The PDE9 used in the present experiment was expressed/purified by the method as in, for example, Guipponi et al., and Fisher et., al. (Fisher, D. A., et al., J. Biol. Chem., 273: pp. 15559-15564 (1998), Guipponi, M., et al., Hum. Genet., 103: pp. 386-392 (1998)).
The PDE9-inhibiting activity was measured by the following method. That is, to a buffer solution containing tris(hydroxymethyl)aminomethane-hydrochloric acid (40 mM, pH 8.0), magnesium chloride (5 mM), and 2-mercaptoethanol (4 mM) were added cGMP (1 μM) and ^3H-cGMP (0.33 μCi/ml) to give a substrate buffer solution. A test substance solution and an enzyme solution which had been adjusted to an optimal concentration were added thereto to perform a reaction at 30° C. The enzyme reaction was stopped by the addition of Scintillation Proximity Assay (SPA) Beads (GE Healthcare, UK) containing 5 mM 3-isobutyl-1-methylxanthine (IBMX). For the enzyme activity, the amount of 5′-GMP, which is a reaction degradation product bound to SPA beads, was measured with a TopCount microplate reader (Hewlett Packard, USA).
The inhibitory rate was calculated by taking the radioactivity of the control containing no test substance as (A), taking the radioactivity of the blank containing no enzyme as (B), and taking the radioactivity of the test substance as (C), and using the following equation. Inhibitory rate=100−{(C)−(B)/(A)−(B)}×100(%)

T1 sequence (O76083 whole entry): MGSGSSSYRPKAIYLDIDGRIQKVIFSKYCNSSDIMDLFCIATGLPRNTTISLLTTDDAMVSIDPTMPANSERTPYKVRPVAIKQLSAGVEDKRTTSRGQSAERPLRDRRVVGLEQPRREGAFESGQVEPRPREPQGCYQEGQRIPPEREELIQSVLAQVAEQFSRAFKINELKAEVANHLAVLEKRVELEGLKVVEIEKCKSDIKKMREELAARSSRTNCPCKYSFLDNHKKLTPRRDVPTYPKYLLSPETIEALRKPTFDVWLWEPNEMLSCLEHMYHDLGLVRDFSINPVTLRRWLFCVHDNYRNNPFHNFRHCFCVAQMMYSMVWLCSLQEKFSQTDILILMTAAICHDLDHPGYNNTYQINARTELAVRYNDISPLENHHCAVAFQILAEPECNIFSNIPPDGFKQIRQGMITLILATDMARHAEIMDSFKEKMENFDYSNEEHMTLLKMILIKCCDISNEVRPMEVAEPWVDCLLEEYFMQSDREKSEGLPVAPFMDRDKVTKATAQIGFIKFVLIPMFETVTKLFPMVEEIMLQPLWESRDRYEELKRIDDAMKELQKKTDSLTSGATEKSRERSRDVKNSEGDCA

| SMILES | IC50 (PDE9) | melting point |
| --- | --- | --- |
| COCc1cc2c(cc1C(=O)N1CCc3cc(Cl)ccc31)[nH]c(=O)c1nnc(CC3CC3)n12.Cl [Example 522] | 3.6 nM | 257 °C (dec.) |
| Cc1cc2c(cc1C(=O)N1CCc3cc(Cl)ccc31)[nH]c(=O)c1cnc([C@H]3CC[C@H](C(N)=O)CC3)n12 [Example 528] | 0.9 nM | 234 to 237 °C |
